# Data reported in PubChem BioAssay (NCI).
#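 Five concentrations, 48 hours, 96-well plates. The concentration for full growth arrest is given as TGI.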
# Legend:
# Assay in all cases: NCI-60 cell line screen, 48 h
# 786-0 renal = tested on: 786-0 renal
# A549 NSCLC = tested on: A549 NSCLC
# ACHN renal = tested on: ACHN renal
# BT-549 breast = tested on: BT-549 breast
# CAKI-1 renal = tested on: CAKI-1 renal
# CCRF-CEM leukemia = tested on: CCRF-CEM leukemia
# COLO 205 colon = tested on: COLO 205 colon
# DU-145 prostate = tested on: DU-145 prostate
# EKVX NSCLC = tested on: EKVX NSCLC
# HCC-2998 colon = tested on: HCC-2998 colon
# HCT-116 colon = tested on: HCT-116 colon
# HCT-15 colon = tested on: HCT-15 colon
# HL-60(TB) leukemia = tested on: HL-60(TB) leukemia
# HOP-62 NSCLC = tested on: HOP-62 NSCLC
# HOP-92 NSCLC = tested on: HOP-92 NSCLC
# HS 578T breast = tested on: HS 578T breast
# HT29 colon = tested on: HT29 colon
# IGROV1 ovarian = tested on: IGROV1 ovarian
# K-562 leukemia = tested on: K-562 leukemia
# KM12 colon = tested on: KM12 colon
# LOX IMVI melanoma = tested on: LOX IMVI melanoma
# M14 melanoma = tested on: M14 melanoma
# MALME-3M melanoma = tested on: MALME-3M melanoma
# MCF7 breast = tested on: MCF7 breast
# MDA-MB-231 breast = tested on: MDA-MB-231 breast
# MDA-MB-435 = tested on: MDA-MB-435
# MDA-N = tested on: MDA-N
# MOLT-4 leukemia = tested on: MOLT-4 leukemia
# NCI-H226 lung = tested on: NCI-H226 lung
# NCI-H23 lung = tested on: NCI-H23 lung
# NCI-H460 lung = tested on: NCI-H460 lung
# NCI-H522 lung = tested on: NCI-H522 lung
# NCI/ADR-RES ovarian = tested on: NCI/ADR-RES ovarian
# OVCAR-3 ovarian = tested on: OVCAR-3 ovarian
# OVCAR-4 ovarian = tested on: OVCAR-4 ovarian
# OVCAR-5 ovarian = tested on: OVCAR-5 ovarian
# OVCAR-8 ovarian = tested on: OVCAR-8 ovarian
# PC-3 prostate = tested on: PC-3 prostate
# RPMI-8226 leukemia = tested on: RPMI-8226 leukemia
# RXF 393 renal = tested on: RXF 393 renal
# SF-268 CNS = tested on: SF-268 CNS
# SF-295 CNS = tested on: SF-295 CNS
# SF-539 CNS = tested on: SF-539 CNS
# SK-MEL-2 melanoma = tested on: SK-MEL-2 melanoma
# SK-MEL-28 melanoma = tested on: SK-MEL-28 melanoma
# SK-MEL-5 melanoma = tested on: SK-MEL-5 melanoma
# SK-OV-3 ovarian = tested on: SK-OV-3 ovarian
# SN12C renal = tested on: SN12C renal
# SNB-19 CNS = tested on: SNB-19 CNS
# SNB-75 CNS = tested on: SNB-75 CNS
# SR leukemia = tested on: SR leukemia
# SW-620 colon = tested on: SW-620 colon
# T-47D breast = tested on: T-47D breast
# TK-10 renal = tested on: TK-10 renal
# U251 CNS = tested on: U251 CNS
# UACC-257 melanoma = tested on: UACC-257 melanoma
# UO-31 renal = tested on: UO-31 renal
# A498 renal = tested on: A498 renal
# UACC-62 melanoma = tested on: UACC-62 melanoma
structure (smiles),measurement,setting,value
CCn1c2c(c3c(C(=O)OC)c(O)ccc31)C(=O)c1ccccc1C2=O,TGI,786-0 renal,25.4 µM
same,TGI,A549 NSCLC,38.9 µM
same,TGI,ACHN renal,21.9 µM
same,TGI,BT-549 breast,39.5 µM
same,TGI,CAKI-1 renal,94.6 µM
same,TGI,CCRF-CEM leukemia,43.6 µM
same,TGI,COLO 205 colon,33 µM
same,TGI,DU-145 prostate,38.9 µM
same,TGI,EKVX NSCLC,59.7 µM
same,TGI,HCC-2998 colon,34.9 µM
same,TGI,HCT-116 colon,26.5 µM
same,TGI,HCT-15 colon,30.1 µM
same,TGI,HL-60(TB) leukemia,57.3 µM
same,TGI,HOP-62 NSCLC,30.1 µM
same,TGI,HOP-92 NSCLC,32.8 µM
same,TGI,HS 578T breast,55.3 µM
same,TGI,HT29 colon,36.5 µM
same,TGI,IGROV1 ovarian,15.3 µM
same,TGI,K-562 leukemia,> 100 µM
same,TGI,KM12 colon,34.6 µM
same,TGI,LOX IMVI melanoma,71.6 µM
same,TGI,M14 melanoma,28.3 µM
same,TGI,MALME-3M melanoma,35 µM
same,TGI,MCF7 breast,70.8 µM
same,TGI,MDA-MB-231 breast,51.5 µM
same,TGI,MDA-MB-435,32.4 µM
same,TGI,MDA-N,29.9 µM
same,TGI,MOLT-4 leukemia,61.5 µM
same,TGI,NCI-H226 lung,34 µM
same,TGI,NCI-H23 lung,48.7 µM
same,TGI,NCI-H460 lung,27.9 µM
same,TGI,NCI-H522 lung,23.8 µM
same,TGI,NCI/ADR-RES ovarian,66 µM
same,TGI,OVCAR-3 ovarian,63.1 µM
same,TGI,OVCAR-4 ovarian,37.5 µM
same,TGI,OVCAR-5 ovarian,42.5 µM
same,TGI,OVCAR-8 ovarian,30.7 µM
same,TGI,PC-3 prostate,42.7 µM
same,TGI,RPMI-8226 leukemia,27.2 µM
same,TGI,RXF 393 renal,52.6 µM
same,TGI,SF-268 CNS,69.6 µM
same,TGI,SF-295 CNS,47.1 µM
same,TGI,SF-539 CNS,36 µM
same,TGI,SK-MEL-2 melanoma,30.5 µM
same,TGI,SK-MEL-28 melanoma,42.6 µM
same,TGI,SK-MEL-5 melanoma,27.6 µM
same,TGI,SK-OV-3 ovarian,30.4 µM
same,TGI,SN12C renal,29.4 µM
same,TGI,SNB-19 CNS,> 100 µM
same,TGI,SNB-75 CNS,39.9 µM
same,TGI,SR leukemia,46.6 µM
same,TGI,SW-620 colon,33.8 µM
same,TGI,T-47D breast,33 µM
same,TGI,TK-10 renal,> 100 µM
same,TGI,U251 CNS,36.3 µM
same,TGI,UACC-257 melanoma,> 100 µM
same,TGI,UO-31 renal,27.3 µM
CN(C)c1ccc(/C=N/NC2=N/C(=C\c3ccco3)C(=O)N2)cc1,TGI,786-0 renal,> 100 µM
same,TGI,A498 renal,> 100 µM
same,TGI,A549 NSCLC,> 100 µM
same,TGI,ACHN renal,> 100 µM
same,TGI,BT-549 breast,> 100 µM
same,TGI,CAKI-1 renal,> 100 µM
same,TGI,CCRF-CEM leukemia,> 100 µM
same,TGI,COLO 205 colon,> 100 µM
same,TGI,DU-145 prostate,> 100 µM
same,TGI,EKVX NSCLC,> 100 µM
same,TGI,HCT-116 colon,> 100 µM
same,TGI,HCT-15 colon,> 100 µM
same,TGI,HL-60(TB) leukemia,> 100 µM
same,TGI,HOP-62 NSCLC,> 100 µM
same,TGI,HOP-92 NSCLC,> 100 µM
same,TGI,HS 578T breast,> 100 µM
same,TGI,HT29 colon,> 100 µM
same,TGI,IGROV1 ovarian,> 100 µM
same,TGI,K-562 leukemia,> 100 µM
same,TGI,KM12 colon,> 100 µM
same,TGI,LOX IMVI melanoma,> 100 µM
same,TGI,M14 melanoma,> 100 µM
same,TGI,MALME-3M melanoma,> 100 µM
same,TGI,MDA-MB-231 breast,> 100 µM
same,TGI,MDA-MB-435,> 100 µM
same,TGI,MDA-N,> 100 µM
same,TGI,MOLT-4 leukemia,> 100 µM
same,TGI,NCI-H226 lung,> 100 µM
same,TGI,NCI-H23 lung,> 100 µM
same,TGI,NCI-H460 lung,> 100 µM
same,TGI,NCI-H522 lung,> 100 µM
same,TGI,NCI/ADR-RES ovarian,> 100 µM
same,TGI,OVCAR-3 ovarian,> 100 µM
same,TGI,OVCAR-5 ovarian,> 100 µM
same,TGI,OVCAR-8 ovarian,> 100 µM
same,TGI,PC-3 prostate,> 100 µM
same,TGI,RPMI-8226 leukemia,> 100 µM
same,TGI,RXF 393 renal,> 100 µM
same,TGI,SF-268 CNS,> 100 µM
same,TGI,SF-295 CNS,> 100 µM
same,TGI,SF-539 CNS,> 100 µM
same,TGI,SK-MEL-2 melanoma,> 100 µM
same,TGI,SK-MEL-28 melanoma,> 100 µM
same,TGI,SK-MEL-5 melanoma,> 100 µM
same,TGI,SK-OV-3 ovarian,> 100 µM
same,TGI,SN12C renal,> 100 µM
same,TGI,SNB-19 CNS,> 100 µM
same,TGI,SNB-75 CNS,> 100 µM
same,TGI,SW-620 colon,> 100 µM
same,TGI,T-47D breast,> 100 µM
same,TGI,TK-10 renal,> 100 µM
same,TGI,U251 CNS,> 100 µM
same,TGI,UACC-257 melanoma,> 100 µM
same,TGI,UACC-62 melanoma,> 100 µM
same,TGI,UO-31 renal,> 100 µM
O=S(=O)(O)c1ccc2cc(N=Nc3cc(S(=O)(=O)O)c4cccnc4c3O)ccc2c1,TGI,786-0 renal,> 100 µM
same,TGI,A498 renal,> 100 µM
same,TGI,A549 NSCLC,> 100 µM
same,TGI,ACHN renal,> 100 µM
same,TGI,BT-549 breast,> 100 µM
same,TGI,CAKI-1 renal,> 100 µM
same,TGI,CCRF-CEM leukemia,> 100 µM
same,TGI,COLO 205 colon,> 100 µM
same,TGI,DU-145 prostate,> 100 µM
same,TGI,EKVX NSCLC,> 100 µM
same,TGI,HCT-116 colon,> 100 µM
same,TGI,HCT-15 colon,> 100 µM
same,TGI,HL-60(TB) leukemia,4.97 µM
same,TGI,HOP-62 NSCLC,> 100 µM
same,TGI,HOP-92 NSCLC,> 100 µM
same,TGI,HS 578T breast,> 100 µM
same,TGI,HT29 colon,> 100 µM
same,TGI,IGROV1 ovarian,> 100 µM
same,TGI,K-562 leukemia,> 100 µM
same,TGI,KM12 colon,> 100 µM
same,TGI,LOX IMVI melanoma,> 100 µM
same,TGI,M14 melanoma,> 100 µM
same,TGI,MALME-3M melanoma,> 100 µM
same,TGI,MCF7 breast,> 100 µM
same,TGI,MDA-MB-231 breast,> 100 µM
same,TGI,MDA-MB-435,> 100 µM
same,TGI,MDA-N,> 100 µM
same,TGI,MOLT-4 leukemia,> 100 µM
same,TGI,NCI-H226 lung,> 100 µM
same,TGI,NCI-H23 lung,> 100 µM
same,TGI,NCI-H460 lung,> 100 µM
same,TGI,NCI-H522 lung,> 100 µM
same,TGI,NCI/ADR-RES ovarian,> 100 µM
same,TGI,OVCAR-3 ovarian,> 100 µM
same,TGI,OVCAR-4 ovarian,> 100 µM
same,TGI,OVCAR-5 ovarian,> 100 µM
same,TGI,OVCAR-8 ovarian,> 100 µM
same,TGI,PC-3 prostate,> 100 µM
same,TGI,RPMI-8226 leukemia,> 100 µM
same,TGI,RXF 393 renal,> 100 µM
same,TGI,SF-268 CNS,> 100 µM
same,TGI,SF-295 CNS,> 100 µM
same,TGI,SF-539 CNS,> 100 µM
same,TGI,SK-MEL-2 melanoma,> 100 µM
same,TGI,SK-MEL-28 melanoma,> 100 µM
same,TGI,SK-MEL-5 melanoma,> 100 µM
same,TGI,SK-OV-3 ovarian,> 100 µM
same,TGI,SNB-19 CNS,> 100 µM
same,TGI,SNB-75 CNS,> 100 µM
same,TGI,SR leukemia,> 100 µM
same,TGI,SW-620 colon,> 100 µM
same,TGI,T-47D breast,> 100 µM
same,TGI,TK-10 renal,> 100 µM
same,TGI,U251 CNS,> 100 µM
same,TGI,UACC-257 melanoma,> 100 µM
same,TGI,UACC-62 melanoma,> 100 µM
same,TGI,UO-31 renal,> 100 µM
